Key:
DNA repair protein genes = assay: DNA chip mRNA expression in yeast, DNA repair protein genes (Table 3); assay type: cell-based, Saccharomyces cerevisiae S288C; settings: incubated two hours, concentrations as in the 1st table
Summary of the method: (§1)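 Value is the scanned fluorescence intensity ratio of exposed versus chemical-free cells. Log-phase S288C yeast in YPD at 25° C. received one toxic substance for two hours, dosed to slow growth without killing; Cy3/Cy5-labeled cDNA from oligo-dT-purified mRNA was hybridized to a whole-genome chip at 65° C.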

[1] = tested on: Detoxification protein genes; assay: DNA chip mRNA expression in yeast, detoxification protein genes (Table 8); assay type: cell-based, Saccharomyces cerevisiae S288C
Summary of the method: as §1

SMILES: COc1cc(CNC(=O)CCCCC=CC(C)C)ccc1O [(12), 8-methyl-N-vanillyl-6-nonenamide]
- The level of expressed mRNA in the presence of chemical substance/The level of expressed mRNA in the absence of chemical substance (DNA repair protein genes; yeast gene YAL015C): 1.0
- The level of expressed mRNA in the presence of chemical substance/The level of expressed mRNA in the absence of chemical substance (DNA repair protein genes; yeast gene YAR007C): 0.9
- The level of expressed mRNA in the presence of chemical substance/The level of expressed mRNA in the absence of chemical substance (DNA repair protein genes; yeast gene YBL019W): 0.8
- The level of expressed mRNA in the presence of chemical substance/The level of expressed mRNA in the absence of chemical substance (DNA repair protein genes; yeast gene YBR073W): 0.9
- The level of expressed mRNA in the presence of chemical substance/The level of expressed mRNA in the absence of chemical substance (DNA repair protein genes; yeast gene YBR272C): 0.5
- The level of expressed mRNA in the presence of chemical substance/The level of expressed mRNA in the absence of chemical substance (DNA repair protein genes; yeast gene YCR014C): 0.7
- The level of expressed mRNA in the presence of chemical substance/The level of expressed mRNA in the absence of chemical substance (DNA repair protein genes; yeast gene YDL017W): 0.8
- The level of expressed mRNA in the presence of chemical substance/The level of expressed mRNA in the absence of chemical substance (DNA repair protein genes; yeast gene YDL059C): 1.3
- The level of expressed mRNA in the presence of chemical substance/The level of expressed mRNA in the absence of chemical substance (DNA repair protein genes; yeast gene YDL200C): 1.1
- The level of expressed mRNA in the presence of chemical substance/The level of expressed mRNA in the absence of chemical substance (DNA repair protein genes; yeast gene YDR054C): 1.0
- The level of expressed mRNA in the presence of chemical substance/The level of expressed mRNA in the absence of chemical substance (DNA repair protein genes; yeast gene YDR369C): 0.9
- The level of expressed mRNA in the presence of chemical substance/The level of expressed mRNA in the absence of chemical substance (DNA repair protein genes; yeast gene YEL019C): 1.0
- The level of expressed mRNA in the presence of chemical substance/The level of expressed mRNA in the absence of chemical substance (DNA repair protein genes; yeast gene YEL037C): 1.1
- The level of expressed mRNA in the presence of chemical substance/The level of expressed mRNA in the absence of chemical substance (DNA repair protein genes; yeast gene YER162C): 0.4
- The level of expressed mRNA in the presence of chemical substance/The level of expressed mRNA in the absence of chemical substance (DNA repair protein genes; yeast gene YFL014W): 4.3
- The level of expressed mRNA in the presence of chemical substance/The level of expressed mRNA in the absence of chemical substance (DNA repair protein genes; yeast gene YGL058W): 1.3
- The level of expressed mRNA in the presence of chemical substance/The level of expressed mRNA in the absence of chemical substance (DNA repair protein genes; yeast gene YGL091C): 1.2
- The level of expressed mRNA in the presence of chemical substance/The level of expressed mRNA in the absence of chemical substance (DNA repair protein genes; yeast gene YGL127C): 1.4
- The level of expressed mRNA in the presence of chemical substance/The level of expressed mRNA in the absence of chemical substance (DNA repair protein genes; yeast gene YGL163C): 0.9
- The level of expressed mRNA in the presence of chemical substance/The level of expressed mRNA in the absence of chemical substance (DNA repair protein genes; yeast gene YGL249W): 0.8
- The level of expressed mRNA in the presence of chemical substance/The level of expressed mRNA in the absence of chemical substance (DNA repair protein genes; yeast gene YGR180C): 0.9
- The level of expressed mRNA in the presence of chemical substance/The level of expressed mRNA in the absence of chemical substance (DNA repair protein genes; yeast gene YGR231C): 1.3
- The level of expressed mRNA in the presence of chemical substance/The level of expressed mRNA in the absence of chemical substance (DNA repair protein genes; yeast gene YGR258C): 0.9
- The level of expressed mRNA in the presence of chemical substance/The level of expressed mRNA in the absence of chemical substance (DNA repair protein genes; yeast gene YHR164C): 1.2
- The level of expressed mRNA in the presence of chemical substance/The level of expressed mRNA in the absence of chemical substance (DNA repair protein genes; yeast gene YIL036W): 1.2
- The level of expressed mRNA in the presence of chemical substance/The level of expressed mRNA in the absence of chemical substance (DNA repair protein genes; yeast gene YIL072W): 1.1
- The level of expressed mRNA in the presence of chemical substance/The level of expressed mRNA in the absence of chemical substance (DNA repair protein genes; yeast gene YIL143C): 0.9
- The level of expressed mRNA in the presence of chemical substance/The level of expressed mRNA in the absence of chemical substance (DNA repair protein genes; yeast gene YIL153W): 1.0
- The level of expressed mRNA in the presence of chemical substance/The level of expressed mRNA in the absence of chemical substance (DNA repair protein genes; yeast gene YIR002C): 1.3
- The level of expressed mRNA in the presence of chemical substance/The level of expressed mRNA in the absence of chemical substance (DNA repair protein genes; yeast gene YJL026W): 1.0
- The level of expressed mRNA in the presence of chemical substance/The level of expressed mRNA in the absence of chemical substance (DNA repair protein genes; yeast gene YJR046W): 0.9
- The level of expressed mRNA in the presence of chemical substance/The level of expressed mRNA in the absence of chemical substance (DNA repair protein genes; yeast gene YJR052W): 1.1
- The level of expressed mRNA in the presence of chemical substance/The level of expressed mRNA in the absence of chemical substance (DNA repair protein genes; yeast gene YKL145W): 1.3
- The level of expressed mRNA in the presence of chemical substance/The level of expressed mRNA in the absence of chemical substance (DNA repair protein genes; yeast gene YLR103C): 1.6
- The level of expressed mRNA in the presence of chemical substance/The level of expressed mRNA in the absence of chemical substance (DNA repair protein genes; yeast gene YLR233C): 0.9
- The level of expressed mRNA in the presence of chemical substance/The level of expressed mRNA in the absence of chemical substance (DNA repair protein genes; yeast gene YLR288C): 0.6
- The level of expressed mRNA in the presence of chemical substance/The level of expressed mRNA in the absence of chemical substance (DNA repair protein genes; yeast gene YML032C): 0.9
- The level of expressed mRNA in the presence of chemical substance/The level of expressed mRNA in the absence of chemical substance (DNA repair protein genes; yeast gene YML058W): 0.9
- The level of expressed mRNA in the presence of chemical substance/The level of expressed mRNA in the absence of chemical substance (DNA repair protein genes; yeast gene YMR035W): 0.5
- The level of expressed mRNA in the presence of chemical substance/The level of expressed mRNA in the absence of chemical substance (DNA repair protein genes; yeast gene YMR072W): 0.8
- The level of expressed mRNA in the presence of chemical substance/The level of expressed mRNA in the absence of chemical substance (DNA repair protein genes; yeast gene YMR096W): 1.4
- The level of expressed mRNA in the presence of chemical substance/The level of expressed mRNA in the absence of chemical substance (DNA repair protein genes; yeast gene YMR284W): 0.6
- The level of expressed mRNA in the presence of chemical substance/The level of expressed mRNA in the absence of chemical substance (DNA repair protein genes; yeast gene YNL213C): 0.8
- The level of expressed mRNA in the presence of chemical substance/The level of expressed mRNA in the absence of chemical substance (DNA repair protein genes; yeast gene YNL250W): 1.4
- The level of expressed mRNA in the presence of chemical substance/The level of expressed mRNA in the absence of chemical substance (DNA repair protein genes; yeast gene YNL261W): 0.8
- The level of expressed mRNA in the presence of chemical substance/The level of expressed mRNA in the absence of chemical substance (DNA repair protein genes; yeast gene YNL312W): 0.9
- The level of expressed mRNA in the presence of chemical substance/The level of expressed mRNA in the absence of chemical substance (DNA repair protein genes; yeast gene YOL043C): 0.8
- The level of expressed mRNA in the presence of chemical substance/The level of expressed mRNA in the absence of chemical substance (DNA repair protein genes; yeast gene YOR005C): 0.9
- The level of expressed mRNA in the presence of chemical substance/The level of expressed mRNA in the absence of chemical substance (DNA repair protein genes; yeast gene YOR386W): 1.2
- The level of expressed mRNA in the presence of chemical substance/The level of expressed mRNA in the absence of chemical substance (DNA repair protein genes; yeast gene YPL022W): 0.7
- The level of expressed mRNA in the presence of chemical substance/The level of expressed mRNA in the absence of chemical substance (DNA repair protein genes; yeast gene YPL164C): 0.9
- The level of expressed mRNA in the presence of chemical substance/The level of expressed mRNA in the absence of chemical substance (DNA repair protein genes; yeast gene YPL194W): 0.9
- The level of expressed mRNA in the presence of chemical substance/The level of expressed mRNA in the absence of chemical substance (DNA repair protein genes; yeast gene YPR025C): 0.7
- The level of expressed mRNA in the presence of chemical substance/The level of expressed mRNA in the absence of chemical substance ([1]; yeast gene YBL064C): 1.7
- The level of expressed mRNA in the presence of chemical substance/The level of expressed mRNA in the absence of chemical substance ([1]; yeast gene YBR008C): 0.8
- The level of expressed mRNA in the presence of chemical substance/The level of expressed mRNA in the absence of chemical substance ([1]; yeast gene YBR145W): 1.0
